Experimental data: patent US20160010138A1, “RAPID DETERMINATION OF MICROBIAL DROWTH AND ANTIMICROBIAL SUSEPTABILITY” (priority 2013, published 2016)
Like-named read-outs stand apart in the source and are kept apart here.

What was measured:
H. influenzae = test: Respiratory/metabolic activity indicator labeling (2-NBDG uptake); type: cell-based; settings: overnight refrigerator culture, viability independently verified
Source text: (§1) Physiologic indicators of active bacteria include indicators of growth, responsiveness to external stimulus, transcription, translation, energy dependent activity, enzyme activity, and an intact permeability barrier. The indicators tested experimentally were grouped according to the following functional categories of physiologic states to which they are responsive, which included indicators of respiratory and metabolic activity, and membrane integrity.
(§2) 2-NBDG (Molecular Probes) is a fluorescent derivative (green channel) of D-glucose that is internalized by active bacteria.

K. pneumoniae = test: as above; type: cell-based; settings: overnight refrigerator stock culture; approximately 1 min of exposure to 1 μM
Source text: as §1, §2

S. maltophilia = test: as above; type: cell-based; settings: overnight refrigerator culture; negative control (does not metabolize glucose)
Source text: as §1, §2

S. aureus = test: as above; type: cell-based; settings: overnight refrigerator culture, viability independently verified
Source text: as §1, §2

E. coli [1] = test: as above; type: cell-based; settings: overnight refrigerator stock culture; approximately 1 min of exposure to 1 μM
Source text: as §1, §2

Enteric = test: MADM (BACcel) phenotype/sensitivity by growth analysis, surveillance mini-BAL; type: cell-based; settings: Spec# 005-D7, BACcel ID Enteric, 1.26 × 10^5 CFU/ml
Method: (§3) Adult MICU patients with identified surrogate were included within 72 hours of intubation and if anticipated to require MV for >48 h. Moribund state or pregnancy were exclusions. Surveillance mini-BAL (Combicath, Plastimed) was performed on Day 1, 3, 5, 7 and 10 of MV. Samples were split and processed for both a) routine respiratory quantitative microbiological culture and sensitivity assays (>48 h result availability) and b) rapid (<8 hour) flowcell/surface-capture assays using the MADM system. Viable microorganisms were identified using growth analysis enhanced by a focused VAP antibody panel (S. aureus, P. aeruginosa, A. baumannii). Untypable organisms were also reported. Sensitivity was assessed using growth analysis. Attending physicians were blinded to MADM system results.
BAL sample were prepared, removing debris and separating microorganisms from other sample material. Sample microorganisms were introduced into a multichannel fluidic cassette as described elsewhere herein. […]
The automated digital microscopy system was used to perform darkfield imaging of 10 fields of view every 10 minutes for 180 minutes in each flowcell channel. […] Quantitation was performed by counting identified microorganisms and computing original specimen CFU/mL.

Steno = test: as above; type: cell-based, S. maltophilia
Method: as §3
(§4) BAL sample were prepared, removing debris and separating microorganisms from other sample material. Sample microorganisms were introduced into a multichannel fluidic cassette as described elsewhere herein. Bacteria were concentrated and retained on the lower surface of all flowcells using low-voltage electrical field (5 min) Antibody labeling of bacteria in flowcells was used to aid identification.
(§5) The automated digital microscopy system was used to perform darkfield imaging of 10 fields of view every 10 minutes for 180 minutes in each flowcell channel. Initial epifluorescence imaging was also performed for antibody detection. […] Identification consisted of probability scores based on microorganism morphology and growth rates. Antibody labeling identification data was also incorporated. Observed microorganisms were then classified as STAU, PSAE, or non-target. Antibiotic responses were used to aid identification when appropriate. Quantitation was performed by counting identified microorganisms and computing original specimen CFU/mL.

E. coli [2] = test: Membrane potential indicator staining; type: cell-based; settings: 10 µg/ml DiBAC4(3), 15 min, room temp
Source text: as §1
(§6) Active bacterial cells maintain a proton gradient across their cell membranes, creating a membrane potential that may be measured using fluorescent dyes. However, the dyes used in this study to evaluate membrane potential are toxic to bacteria and can only be used as an endpoint assay.
DiBAC4(3) (Molecular Probes) is an anionic dye that enters depolarized cells (i.e., cells lacking a membrane potential) and fluoresces in the […] channel when it binds to intracellular proteins or membranes. Using this indicator, 18.5% of an overnight refrigerator stock (control) and 95% of heat-killed E. coli stained with 10 µg/ml DiBAC4(3) after a 15 min incubation period at room temp.

E. coli [3] = test: Membrane potential indicator, red:green fluorescence ratio; type: cell-based; settings: O/N refrigerator stock vs CCCP-treated E. coli
Source text: as §1, §6
DiOC2(3) (Molecular Probes) is a dye that fluoresces in the red channel when it is highly concentrated and self-associates in cells with an intact membrane potential. […] The red:green fluorescence ratio is used to normalize the fluorescence results of cells with differing sizes. Carbonylcyanide-m-chlorophenylhydrazone (CCCP) is a proton ionophore that disrupts the proton gradient and was used to treat E. coli cells in an experimental sample that was compared to an untreated overnight refrigerator stock.

STAU = test: MADM (BACcel) phenotype/sensitivity by growth analysis, surveillance mini-BAL; type: cell-based, S. aureus; settings: Spec# 008-D7, BACcel ID STAU, 1.11 × 10^6 CFU/ml
Method: as §3, §4, §5

[4] = test system: Staphylococcus aureus (SA); test: Same-day blood culture MADM drug resistance phenotyping; type: cell-based; settings: SA in 6 μg/mL FOX, dark-field images over 3 hours (FIG. 10B)
Method: The MADM system used a custom microscope and pipetting robot, plus an evaluation system, as described herein. 32-channel disposable cassettes (FIG. 4A) enabled live microorganism immobilization for microscopy and fluid exchanges for different test agents. The microscope scanned 40 image fields in each flowcell channel, each channel having organisms extracted from about 3.5 μL of prepared inoculum.
Simulated blood specimens consisted of isolates spiked into 10 mL each of 29 aliquots of two short-fill CPD blood bank bags to make approximately 5 CFU/mL of bacterial target species, confirmed by quantitative culture. Spiked isolates included 14 Staphylococcus aureus (SA), 3 Pseudomonas aeruginosa (PA), or 12 non-target Gram-negative bacilli species. Dilution of each sample with 30 mL of modified TSB culture medium promoted growth. 20 additional control aliquots contained no spikes. 4-hour incubation at 35° C., followed with brief spin cleanup, ended with pellet resuspension into an electrokinetic buffer to make 1 mL samples for MADM system analysis. 20 μL sample aliquots were then pipetted into 14 cassette flowcells. A 5-minute low-voltage electrokinetic capture was performed to concentrate microorganisms on the lower surface of each flowcell where a capture coating immobilized the bacterial cells. […]

[5] = test system: Staphylococcus aureus (STAU); test: MADM system resistance phenotype tests on respiratory specimens; type: cell-based; settings: for resistance phenotype result (S/R), MADM: ID STAU, MRSA by FOX
Method: (ABCC). Concurrent quantitative culture was performed on specimens.
Specimen preparation used a brief procedure to release bacteria, reduce imaging background, and suspend bacteria in a low ionic strength buffer. […] We rejected 10 samples with heavy interfering background when dilution to OD600=0.3 yielded organism counts inadequate for analysis. We rejected 7 samples for other technical deficiencies. The remaining 62 specimens were tested using the MADM system.
(§7) 20 μL samples of prepared specimen were pipetted into independent flowcell channels and a low-voltage electrical field was applied for 5 minutes. The electrical field concentrated bacteria onto a functional surface coating that immobilized the bacteria on the lower flowcell surface. Each flowcell channel received only one type of test reagent solution that contained a selective agent if required (only for channels used to test AB, sulbactam 32 μg/mL).
(§8) The instrument acquired images at 10-minutes intervals for 180 minutes, using 10 fields of view in each flowcell channel through a 20× objective. Imaging used darkfield illumination. Identification variables included response to selective agents (AB with sulbactam), cell morphology, growth morphology, and growth rate.
(§9) Identification algorithms applied to each individual immobilized bacterial cell. The system measured the amount of change in mass over time to compute growth rates. Identification consisted of computing and combining probability scores for morphology, response to selective media, and growth rates to produce a receiver operating characteristic curve (ROC) to derive classification criteria.

[6] = test system: Pseudomonas aeruginosa (PSAE); test: as above; type: cell-based; settings: ID PSAE
Method: (§10) These specimens were prepped for introduction into the MADM system. The system performed quantitative ID for Staphylococcus aureus (STAU), Pseudomonas aeruginosa (PSAE), and Acinetobacter spp. (ABCC). Concurrent quantitative culture was performed on specimens. The MADM system performed resistance phenotype tests on STAU-containing specimens for cefoxitin (FOX) MRSA phenotyping and clindamycin (CLI) resistance. The system tested ABCC- and PSAE-containing specimens for amikacin (AN) and imipenem (IMP) resistance.
(§11) Specimen preparation used a brief procedure to release bacteria, reduce imaging background, and suspend bacteria in a low ionic strength buffer. […] The remaining 62 specimens were tested using the MADM system.
as §7, §8, §9

[7] = test system: Acinetobacter spp. (ABCC); settings: ABCC-positive specimen (specimen name not given); culture result
Source text: (§12) A total of 281 de-identified remnant respiratory specimens were collected from hospital and commercial sources. The specimens included 25 endotracheal aspirates (ETA) of unknown age obtained from a specimen vendor. Also included were 230 mini-bronchoalveolar lavage (mini-BAL) and 26 ETA specimens obtained from Denver Health Medical Center (DHMC). DHMC specimens were 7-21 days old. AST results were available for all mini-BAL specimens but not for ETA. Accompanying reports also included semi-quantitative ID used to select 92 bacteria-positive specimens for analysis using the MADM system. Targets included Pseudomonas aeruginosa, Acinetobacter baumannii complex, and Staphylococcus aureus. Controls used standard culturing methods (Cx).
as §10

[8] = test system: Pseudomonas aeruginosa (PSAE); type: cell-based; settings: ID PSAE, culture result; note: key: S: susceptible; R: resistant
Source text: as §12, §10

[9] = test system: Acinetobacter spp. (ABCC); test: MADM system resistance phenotype tests on respiratory specimens; type: cell-based, Acinetobacter sp.; settings: ABCC-positive specimen (specimen name not given); note: key: S: susceptible; R: resistant
Method: as §10, §11, §7, §8, §9

[10] = Spec# 006-D1, BACcel ID Steno, 7.68 × 10^5 CFU/ml
[11] = Spec# 006-D3, BACcel ID Steno, 1.60 × 10^4 CFU/ml

Compound: O=[N+]([O-])c1ccc(N[C@H]2C(O)O[C@H](CO)[C@@H](O)[C@@H]2O)c2nonc12 (stereo partly shown) [2-NBDG]
- fluorescent labeling (H. influenzae): did not fluoresce
- fluorescent labeling (K. pneumoniae): fluorescently labeled
- fluorescent labeling (S. maltophilia): did not fluoresce
- fluorescent labeling (S. aureus): did not fluoresce
- fluorescent labeling (E. coli [1]): fluorescently labeled

Compound: CC(C)(O/N=C(\C(=O)N[C@@H]1C(=O)N2C(C(=O)[O-])=C(C[n+]3ccccc3)CS[C@H]12)c1csc(N)n1)C(=O)O [CAZ, ceftazidime]
- Phenotype, sensitivity (growth in antibiotic) (Enteric): all growth
- Phenotype, sensitivity (growth in antibiotic) (Steno; [10]): growth, TZP-
- Phenotype, sensitivity (growth in antibiotic) (Steno; [11]): growth, TZP-

Compound: CCCCN1C(=O)C(=CC=Cc2c(O)n(CCCC)c(=O)n(CCCC)c2=O)C(=O)N(CCCC)C1=O [DiBAC4(3)]
- cells stained (E. coli [2]; heat-killed E. coli): 95%
- cells stained (E. coli [2]; overnight refrigerator stock (control) E. coli): 18.5%

Compound: CCN1/C(=C/C=C/c2oc3ccccc3[n+]2CC)Oc2ccccc21.[I-] [DiOC2(3)]
- red:green fluorescence ratios (E. coli [3]): No significant difference

Compound: CO[C@@]1(NC(=O)Cc2cccs2)C(=O)N2C(C(=O)O)=C(COC(N)=O)CS[C@@H]21 [FOX, cefoxitin]
- Phenotype, sensitivity (STAU): FOX - R
- clone growth in drug [4]: growth indicating MRSA phenotype
- resistance phenotype result (S/R), MADM ([5]; specimen DH 425, Mini-BAL): R
- resistance phenotype result (S/R), MADM ([5]; specimen DH 427, Mini-BAL): S
- resistance phenotype result (S/R), MADM ([5]; specimen DH 439, Mini-BAL): R
- resistance phenotype result (S/R), MADM ([5]; specimen DH 440, BAL): S
- resistance phenotype result (S/R), MADM ([5]; specimen DH 457, BAL): S
- resistance phenotype result (S/R), MADM ([5]; specimen DH 485, BAL): S
- resistance phenotype result (S/R), MADM ([5]; specimen DH 509, BAL): S
- resistance phenotype result (S/R), MADM ([5]; specimen DH 514, Mini-BAL): S
- resistance phenotype result (S/R), MADM ([5]; specimen DH 543, BAL): S
- resistance phenotype result (S/R), MADM ([5]; specimen DH 550, BAL): S
- resistance phenotype result (S/R), MADM ([5]; specimen DH 556, Mini-BAL): S
- resistance phenotype result (S/R), MADM ([5]; specimen T12, ETA): R
- MRSA/MSSA call by FOX in the MADM system ([5]; the one discordant STAU sample): MRSA
- Phenotype, sensitivity (growth in antibiotic) (Enteric): all growth
- Phenotype, sensitivity (growth in antibiotic) (Steno; [10]): growth, TZP-
- Phenotype, sensitivity (growth in antibiotic) (Steno; [11]): growth, TZP-

Compound: C[C@@H](O)[C@H]1C(=O)N2C(C(=O)O)=C(SCCN=CN)C[C@H]12 [IMP, imipenem]
- resistance phenotype result (S/R), MADM ([6]; specimen DH 430, Mini-BAL): S
- resistance phenotype result (S/R), MADM ([6]; specimen DH 554, BAL): S
- resistance phenotype result (S/R), MADM ([6]; specimen DH 641, Mini-BAL): S
- resistance phenotype result (S/R), Cx [7]: S
- resistance phenotype result (S/R), Cx ([8]; specimen DH 430, Mini-BAL): S
- resistance phenotype result (S/R), Cx ([8]; specimen DH 554, BAL): S
- resistance phenotype result (S/R), Cx ([8]; specimen DH 641, Mini-BAL): S
- resistance phenotype result (S/R), MADM [9]: S
